Measurements: ChEMBL document CHEMBL4177586, “Small molecule adjuvants that suppress both chromosomal and mcr-1 encoded colistin-resistance and amplify colistin efficacy in polymyxin-susceptible bacteria” (Bioorg Med Chem, 2017)
≈ marks a conversion by molar mass, not a printed value.

How the values were obtained:
Acinetobacter baumannii [1] = assay: Potentiation of colistin-induced antimicrobial activity against Acinetobacter baumannii ATCC 17978 assessed as colistin MIC at 30 uM incubated for overnight duration by CLSI based method (reference value: 2 ug/ml); assay type: functional
Klebsiella pneumoniae [2] = assay: Potentiation of colistin-induced antimicrobial activity against Klebsiella pneumoniae 2210291 expressing mcr1 gene assessed as colistin MIC at 15 uM incubated for overnight duration by CLSI based method (reference value: 16 ug/ml); assay type: functional
Escherichia coli [3] = assay: Potentiation of colistin-induced antimicrobial activity against Escherichia coli YD626 assessed as colistin MIC at 30 uM incubated for overnight duration by CLSI based method (reference value: 1 ug/ml); assay type: functional
Acinetobacter baumannii [4] = assay: Potentiation of colistin-induced antimicrobial activity against Acinetobacter baumannii ATCC 17978 expressing mcr1 gene assessed as reduction in colistin MIC at 15 uM incubated for overnight duration by CLSI based method relative to colistin alone control; assay type: functional
Escherichia coli [5] = assay: Potentiation of colistin-induced antimicrobial activity against Escherichia coli YD626 expressing mcr1 gene assessed as colistin MIC at 30 uM incubated for overnight duration by CLSI based method (reference value: 4 ug/ml); assay type: functional
Escherichia coli [6] = assay: Potentiation of colistin-induced antimicrobial activity against Escherichia coli YD626 assessed as reduction in colistin MIC at 30 uM incubated for overnight duration by CLSI based method relative to colistin alone control; assay type: functional
Klebsiella pneumoniae [7] = assay: Toxicity against Klebsiella pneumoniae BAA2146 incubated for overnight duration by CLSI based method; assay type: organism-based; details: in vivo
Klebsiella pneumoniae [8] = assay: Potentiation of colistin-induced antimicrobial activity against multidrug resistant Klebsiella pneumoniae BAA2146 assessed as minimum drug concentration needed to cause colsitin MIC of 0.125 ug/ml incubated for overnight duration by CLSI based method; assay type: functional
Acinetobacter baumannii [9] = assay: Toxicity against Acinetobacter baumannii SM1536 incubated for overnight duration by CLSI based method; assay type: organism-based; details: in vivo
Acinetobacter baumannii [10] = assay: Potentiation of colistin-induced antimicrobial activity against multidrug resistant Acinetobacter baumannii 5075 assessed as minimum drug concentration needed to cause colsitin MIC of 0.125 ug/ml incubated for overnight duration by CLSI based method; assay type: functional
Klebsiella pneumoniae [11] = assay: Potentiation of colistin-induced antimicrobial activity against Klebsiella pneumoniae 2210291 expressing mcr1 gene assessed as colistin MIC at 30 uM incubated for overnight duration by CLSI based method (reference value: 16 ug/ml); assay type: functional
Klebsiella pneumoniae [12] = assay: Potentiation of colistin-induced antimicrobial activity against Klebsiella pneumoniae 2210291 expressing mcr1 gene assessed as reduction in colistin MIC at 30 uM incubated for overnight duration by CLSI based method relative to colistin alone control; assay type: functional
Acinetobacter baumannii [13] = assay: Potentiation of colistin-induced antimicrobial activity against Acinetobacter baumannii SM1536 expressing mcr1 gene assessed as reduction in colistin MIC at 30 uM incubated for overnight duration by CLSI based method relative to colistin alone control; assay type: functional
Acinetobacter baumannii [14] = assay: Potentiation of colistin-induced antimicrobial activity against Acinetobacter baumannii ATCC 17978 expressing mcr1 gene assessed as reduction in colistin MIC at 30 uM incubated for overnight duration by CLSI based method relative to colistin alone control; assay type: functional
Acinetobacter baumannii [15] = assay: Toxicity against Acinetobacter baumannii ATCC 17978 incubated for overnight duration by CLSI based method; assay type: organism-based; details: in vivo
Acinetobacter baumannii [16] = assay: Potentiation of colistin-induced antimicrobial activity against Acinetobacter baumannii SM1536 assessed as reduction in colistin MIC at 30 uM incubated for overnight duration by CLSI based method relative to colistin alone control; assay type: functional
Escherichia coli [17] = assay: Potentiation of colistin-induced antimicrobial activity against Escherichia coli YD626 expressing mcr1 gene assessed as reduction in colistin MIC at 15 uM incubated for overnight duration by CLSI based method relative to colistin alone control; assay type: functional
Escherichia coli [18] = assay: Potentiation of colistin-induced antimicrobial activity against Escherichia coli ATCC 25922 expressing mcr1 gene assessed as reduction in colistin MIC at 30 uM incubated for overnight duration by CLSI based method relative to colistin alone control; assay type: functional
Acinetobacter baumannii [19] = assay: Potentiation of colistin-induced antimicrobial activity against Acinetobacter baumannii ATCC 17978 expressing mcr1 gene assessed as colistin MIC at 30 uM incubated for overnight duration by CLSI based method (reference value: 16 ug/ml); assay type: functional
Acinetobacter baumannii [20] = assay: Potentiation of colistin-induced antimicrobial activity against Acinetobacter baumannii SM1536 expressing mcr1 gene assessed as reduction in colistin MIC at 15 uM incubated for overnight duration by CLSI based method relative to colistin alone control; assay type: functional
Acinetobacter baumannii [21] = assay: Potentiation of colistin-induced antimicrobial activity against Acinetobacter baumannii SM1536 expressing mcr1 gene assessed as colistin MIC at 15 uM incubated for overnight duration by CLSI based method (reference value: 64 ug/ml); assay type: functional
Escherichia coli [22] = assay: Toxicity against Escherichia coli ATCC 25922 incubated for overnight duration by CLSI based method; assay type: organism-based; details: in vivo
Acinetobacter baumannii [23] = assay: Potentiation of colistin-induced antimicrobial activity against Acinetobacter baumannii ATCC 17978 assessed as reduction in colistin MIC at 30 uM incubated for overnight duration by CLSI based method relative to colistin alone control; assay type: functional
Klebsiella pneumoniae [24] = assay: Toxicity against Klebsiella pneumoniae 2210291 incubated for overnight duration by CLSI based method; assay type: organism-based; details: in vivo
Escherichia coli [25] = assay: Potentiation of colistin-induced antimicrobial activity against Escherichia coli YD626 expressing mcr1 gene assessed as colistin MIC at 15 uM incubated for overnight duration by CLSI based method (reference value: 4 ug/ml); assay type: functional
Klebsiella pneumoniae [26] = assay: Potentiation of colistin-induced antimicrobial activity against Klebsiella pneumoniae 2210291 expressing mcr1 gene assessed as reduction in colistin MIC at 15 uM incubated for overnight duration by CLSI based method relative to colistin alone control; assay type: functional
Escherichia coli [27] = assay: Toxicity against Escherichia coli YD626 incubated for overnight duration by CLSI based method; assay type: organism-based; details: in vivo
Acinetobacter baumannii [28] = assay: Potentiation of colistin-induced antimicrobial activity against multidrug resistant Acinetobacter baumannii BAA1605 assessed as minimum drug concentration needed to cause colsitin MIC of 0.125 ug/ml incubated for overnight duration by CLSI based method; assay type: functional
Acinetobacter baumannii [29] = assay: Potentiation of colistin-induced antimicrobial activity against Acinetobacter baumannii SM1536 expressing mcr1 gene assessed as colistin MIC at 30 uM incubated for overnight duration by CLSI based method (reference value: 64 ug/ml); assay type: functional
Escherichia coli [30] = assay: Potentiation of colistin-induced antimicrobial activity against Escherichia coli ATCC 25922 expressing mcr1 gene assessed as colistin MIC at 30 uM incubated for overnight duration by CLSI based method (reference value: 8 ug/ml); assay type: functional
Klebsiella pneumoniae [31] = assay: Potentiation of colistin-induced antimicrobial activity against Klebsiella pneumoniae 2210291 assessed as reduction in colistin MIC at 30 uM incubated for overnight duration by CLSI based method relative to colistin alone control; assay type: functional
Escherichia coli [32] = assay: Potentiation of colistin-induced antimicrobial activity against Escherichia coli ATCC 25922 assessed as colistin MIC at 30 uM incubated for overnight duration by CLSI based method (reference value: […]); assay type: functional
Escherichia coli [33] = assay: Potentiation of colistin-induced antimicrobial activity against Escherichia coli ATCC 25922 expressing mcr1 gene assessed as colistin MIC at 15 uM incubated for overnight duration by CLSI based method (reference value: 8 ug/ml); assay type: functional

For `CCCCCCc1ccc(-c2cn(CC)c(N)n2)cc1`, the MIC (Acinetobacter baumannii [1]) was 0.0039 µg/mL, the MIC (Klebsiella pneumoniae [2]) was 4 µg/mL and the MIC (Escherichia coli [3]) was 0.00049 µg/mL. For the same compound, the “fold change (FC)” value (Acinetobacter baumannii [4]) was 4, the MIC (Escherichia coli [5]) was less than 0.0019 µg/mL and the “fold change (FC)” value (Escherichia coli [6]) was 2048. It also gave an MIC (Klebsiella pneumoniae [7]) greater than 200 µM, an MIC (Klebsiella pneumoniae [8]) of 15 µM and an MIC (Acinetobacter baumannii [9]) of 100 µM (≈ 27.1 µg/mL). For the same compound, the MIC (Acinetobacter baumannii [10]) was 15 µM, the MIC (Klebsiella pneumoniae [11]) was 0.125 µg/mL and the “fold change (FC)” value (Klebsiella pneumoniae [12]) was 128. The “fold change (FC)” value (Acinetobacter baumannii [13]) was 256, the “fold change (FC)” value (Acinetobacter baumannii [14]) was 32 and the MIC (Acinetobacter baumannii [15]) was 100 µM (≈ 27.1 µg/mL). The “fold change (FC)” value (Acinetobacter baumannii [16]) was 256, the “fold change (FC)” value (Escherichia coli [17]) was 8 and the “fold change (FC)” value (Escherichia coli [18]) was greater than 2048. For the same compound, the MIC (Acinetobacter baumannii [19]) was 0.5 µg/mL, the “fold change (FC)” value (Acinetobacter baumannii [20]) was 8 and the MIC (Acinetobacter baumannii [21]) was 8 µg/mL. The MIC (Escherichia coli [22]) was 200 µM (≈ 54.3 µg/mL), the “fold change (FC)” value (Acinetobacter baumannii [23]) was 512 and the MIC (Klebsiella pneumoniae [24]) was greater than 200 µM. For the same compound, the MIC (Escherichia coli [25]) was 0.5 µg/mL, the “fold change (FC)” value (Klebsiella pneumoniae [26]) was 4 and the MIC (Escherichia coli [27]) was 200 µM (≈ 54.3 µg/mL). The MIC (Acinetobacter baumannii [28]) was 15 µM, the MIC (Acinetobacter baumannii [29]) was 0.25 µg/mL and the MIC (Escherichia coli [30]) was less than 0.0039 µg/mL. For the same compound, the “fold change (FC)” value (Klebsiella pneumoniae [31]) was 32, the MIC (Escherichia coli [32]) was 0.00098 µg/mL and the MIC (Escherichia coli [33]) was 4 µg/mL.
With `CCCCCCc1ccc(-c2cn(C(C)C)c(N)n2)cc1` the MIC (Acinetobacter baumannii [1]) was 0.016 µg/mL, the MIC (Klebsiella pneumoniae [2]) was 8 µg/mL and the MIC (Escherichia coli [3]) was 0.00049 µg/mL. For the same compound, the “fold change (FC)” value (Acinetobacter baumannii [4]) was 4, the MIC (Escherichia coli [5]) was 0.016 µg/mL and the “fold change (FC)” value (Escherichia coli [6]) was 2048. It also gave an MIC (Klebsiella pneumoniae [7]) greater than 200 µM, an MIC (Klebsiella pneumoniae [8]) of 20 µM and an MIC (Acinetobacter baumannii [9]) of 200 µM (≈ 57.1 µg/mL). The MIC (Acinetobacter baumannii [10]) was 20 µM, the MIC (Klebsiella pneumoniae [11]) was 0.5 µg/mL and the “fold change (FC)” value (Klebsiella pneumoniae [12]) was 32. For the same compound, the “fold change (FC)” value (Acinetobacter baumannii [13]) was 64, the “fold change (FC)” value (Acinetobacter baumannii [14]) was 32 and the MIC (Acinetobacter baumannii [15]) was 200 µM (≈ 57.1 µg/mL). For the same compound, the “fold change (FC)” value (Acinetobacter baumannii [16]) was 128, the “fold change (FC)” value (Escherichia coli [17]) was 2 and the “fold change (FC)” value (Escherichia coli [18]) was 512. For the same compound, the MIC (Acinetobacter baumannii [19]) was 0.5 µg/mL, the “fold change (FC)” value (Acinetobacter baumannii [20]) was 4 and the MIC (Acinetobacter baumannii [21]) was 8 µg/mL. The MIC (Escherichia coli [22]) was 200 µM (≈ 57.1 µg/mL), the “fold change (FC)” value (Acinetobacter baumannii [23]) was 128 and the MIC (Klebsiella pneumoniae [24]) was 200 µM (≈ 57.1 µg/mL). For the same compound, the MIC (Escherichia coli [25]) was 2 µg/mL, the “fold change (FC)” value (Klebsiella pneumoniae [26]) was 2 and the MIC (Escherichia coli [27]) was 200 µM (≈ 57.1 µg/mL). It also gave an MIC (Acinetobacter baumannii [28]) of 25 µM, an MIC (Acinetobacter baumannii [29]) of 1 µg/mL and an MIC (Escherichia coli [30]) of 0.016 µg/mL. The “fold change (FC)” value (Klebsiella pneumoniae [31]) was 64, the MIC (Escherichia coli [32]) was 0.0039 µg/mL and the MIC (Escherichia coli [33]) was 8 µg/mL.
Compound `CCCCCc1ccc(C(=O)NCCn2cc(CCCCCc3cnc(N)n3Cc3ccc(CCCC)cc3)nn2)cc1` has an MIC (Acinetobacter baumannii [1]) of less than 0.00098 µg/mL, an MIC (Klebsiella pneumoniae [2]) of 1 µg/mL and an MIC (Escherichia coli [3]) of less than 0.00049 µg/mL. For the same compound, the “fold change (FC)” value (Acinetobacter baumannii [4]) was 8, the MIC (Escherichia coli [5]) was less than 0.002 µg/mL and the “fold change (FC)” value (Escherichia coli [6]) was greater than 2048. For the same compound, the MIC (Klebsiella pneumoniae [7]) was greater than 200 µM, the MIC (Klebsiella pneumoniae [8]) was 10 µM and the MIC (Acinetobacter baumannii [9]) was greater than 200 µM. For the same compound, the MIC (Acinetobacter baumannii [10]) was 10 µM, the MIC (Klebsiella pneumoniae [11]) was 0.25 µg/mL and the “fold change (FC)” value (Klebsiella pneumoniae [12]) was 64. For the same compound, the “fold change (FC)” value (Acinetobacter baumannii [13]) was 32, the “fold change (FC)” value (Acinetobacter baumannii [14]) was 32 and the MIC (Acinetobacter baumannii [15]) was greater than 200 µM. The “fold change (FC)” value (Acinetobacter baumannii [16]) was greater than 2048, the “fold change (FC)” value (Escherichia coli [17]) was 64 and the “fold change (FC)” value (Escherichia coli [18]) was 32. For the same compound, the MIC (Acinetobacter baumannii [19]) was 0.5 µg/mL, the “fold change (FC)” value (Acinetobacter baumannii [20]) was 8 and the MIC (Acinetobacter baumannii [21]) was 8 µg/mL. The MIC (Escherichia coli [22]) was greater than 200 µM, the “fold change (FC)” value (Acinetobacter baumannii [23]) was greater than 2048 and the MIC (Klebsiella pneumoniae [24]) was greater than 200 µM. For the same compound, the MIC (Escherichia coli [25]) was 0.063 µg/mL, the “fold change (FC)” value (Klebsiella pneumoniae [26]) was 16 and the MIC (Escherichia coli [27]) was greater than 200 µM. For the same compound, the MIC (Acinetobacter baumannii [28]) was 5 µM, the MIC (Acinetobacter baumannii [29]) was 2 µg/mL and the MIC (Escherichia coli [30]) was 0.25 µg/mL. For the same compound, the “fold change (FC)” value (Klebsiella pneumoniae [31]) was 64, the MIC (Escherichia coli [32]) was less than 0.00049 µg/mL and the MIC (Escherichia coli [33]) was 0.5 µg/mL.
